Measured values reported in patent publication US7371777B2, “Cyclic compound and PPAR agonist” (Eisai Co., Ltd., priority 2001, dated 2008).

How the values were obtained:
Assay in all cases: Determination of transcriptional activity (GAL4-PPAR LBD chimera, PLAP reporter, CV-1 cells)
Assay type in all cases: cell-based
PPARβ = target: T1, PPARβ (Homo sapiens, UniProt Q03181); conditions: GAL4-human NUC-1 LBD (138-440) chimera, PLAP activity 24 hours after addition of compound
T1 construct: 138-440 (NUC-1); expressed in transfected cells; host or cells: CV-1 (ATCC CCL-70)
T1 sequence (Q03181 138-440): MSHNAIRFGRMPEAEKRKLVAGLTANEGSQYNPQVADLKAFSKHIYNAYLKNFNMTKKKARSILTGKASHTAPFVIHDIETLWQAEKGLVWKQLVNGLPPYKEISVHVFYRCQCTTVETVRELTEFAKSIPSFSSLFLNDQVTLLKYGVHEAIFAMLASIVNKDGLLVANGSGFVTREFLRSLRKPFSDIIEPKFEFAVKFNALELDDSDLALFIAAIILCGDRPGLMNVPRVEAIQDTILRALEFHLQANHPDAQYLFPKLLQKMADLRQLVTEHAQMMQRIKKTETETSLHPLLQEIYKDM
Source text: (§1) Determination of Transcriptional Activity
(§2) (1) Test Method: A GAL4-PPAR LBD chimera expression vector was constructed by ligating human PPAR167-468 (PPARa), 138-440 (NUC-1) and 174-475 (PPARg) amino acid regions (LBD: Ligand Binding Domain) to a yeast transcriptional factor GAL4 1-147 amino acid region. As the reporter gene, PLAP (Placental Alkaline Phosphatase) was used, and this was ligated downstream of a TK promoter containing a 5-copy GAL4 DNA binding element to construct a vector. As host cells, CV-1 (ATCC CCL-70) were used. That is, CV-1 cells were spread at a density of 5×10^5 cells on a 35-mm dish and cultured in 10% FCS/DMEM for 24 hours, and using FuGENE 6 transfection reagent, the cells were co-transfected with the GAL4-PPAR LBD expression vector and GAL4 DBD-TK-PLAP expression vector. Twentyfour hours after this transfection, the cells were spread again on a 96-well plate at a density of 1×10^4/well and further cultured for 24 hours. After 24 hours, the medium was exchanged with DMEM containing 10% FCS, which was previously treated at 65° C. for inactivating intrinsic alkaline phosphatase, and a test compound was added at an arbitrary concentration. The transcriptional activity was determined in terms of PLAP activity secreted 24 hours after addition of the compound, to calculate EC50. The PLAP activity was determined after adding […] and incubating the mixture at room temperature for 1 hour.

PPARα = target: T2, PPARα (Homo sapiens, UniProt Q07869); conditions: GAL4-human PPARα LBD (167-468) chimera, PLAP activity 24 hours after addition of compound
T2 construct: human PPAR167-468 (PPARa); expressed in transfected cells; host or cells: CV-1 (ATCC CCL-70)
T2 sequence (Q07869 167-468): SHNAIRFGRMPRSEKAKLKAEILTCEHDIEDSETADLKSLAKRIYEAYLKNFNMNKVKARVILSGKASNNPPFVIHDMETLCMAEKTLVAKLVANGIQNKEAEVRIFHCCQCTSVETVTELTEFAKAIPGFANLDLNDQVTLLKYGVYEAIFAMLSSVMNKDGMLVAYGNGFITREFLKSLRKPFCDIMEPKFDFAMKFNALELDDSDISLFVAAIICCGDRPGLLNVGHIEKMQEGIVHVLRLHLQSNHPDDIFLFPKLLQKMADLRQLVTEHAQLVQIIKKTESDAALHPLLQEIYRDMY
Source text: as §1, §2

PPARγ = target: T3, PPARγ (Homo sapiens, UniProt P37231); conditions: GAL4-human PPARγ LBD (174-475) chimera, PLAP activity 24 hours after addition of compound
T3 construct: 174-475 (PPARg); expressed in transfected cells; host or cells: CV-1 (ATCC CCL-70)
T3 sequence (P37231 204-505): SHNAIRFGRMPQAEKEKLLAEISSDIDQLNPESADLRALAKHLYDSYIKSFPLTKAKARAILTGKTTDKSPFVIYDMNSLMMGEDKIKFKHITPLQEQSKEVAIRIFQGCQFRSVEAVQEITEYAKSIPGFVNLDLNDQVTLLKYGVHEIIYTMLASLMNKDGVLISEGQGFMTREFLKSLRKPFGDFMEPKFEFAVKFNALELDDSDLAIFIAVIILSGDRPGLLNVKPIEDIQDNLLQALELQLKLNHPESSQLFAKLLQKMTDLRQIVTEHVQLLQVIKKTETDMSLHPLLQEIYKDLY
Source text: as §1, §2

| SMILES | EC50 (PPARβ) | EC50 (PPARα) | EC50 (PPARγ) |
| --- | --- | --- | --- |
| CCCOc1ccc(C(=O)NCc2cc(CC3(C(=O)O)CCCO3)ccc2OC)c(Cl)c1 (stereo not drawn) [Ex. 1, 2-(3-{[(2-Chloro-4-propoxybenzoyl)amino]methyl}-4-methoxybenzyl)tetrahydro-2-furancarboxylic acid] | 533 nM | 28 nM | 56 nM |
| COc1ccc(CC2(C(=O)O)CCCO2)cc1CNC(=O)c1ccc(OC2CCCC2)cc1Cl (stereo not drawn) [Ex. 5, 2-(3-{[(2-Chloro-4-cyclopentyloxybenzoyl)amino]methyl}-4-methoxybenzyl)tetrahydro-2-furancarboxylic acid] | 1320 nM | 15 nM | 40 nM |
| CCCOc1ccc(C(=O)NCc2cc(CC3(C(=O)O)C=CCO3)ccc2OC)c(Cl)c1 (stereo not drawn) [Ex. 49, 2-(3-{[(2-Chloro-4-propoxybenzoyl)amino]methyl}-4-methoxybenzyl)-2,5-dihydro-2-furancarboxylic acid] | 771 nM | 54 nM | 37 nM |

Results, then the compound that gave them:

| EC50 (PPARβ) | EC50 (PPARα) | EC50 (PPARγ) | SMILES |
| --- | --- | --- | --- |
| 1210 nM | 11 nM | 78 nM | COc1ccc(CC2(C(=O)O)CCCO2)cc1CNC(=O)c1ccc(C2CCCCC2)cc1Cl (stereo not drawn) [Ex. 6, 2-(3-{[(2-Chloro-4-cyclohexylbenzoyl)amino]methyl}-4-methoxybenzyl)tetrahydro-2-furancarboxylic acid] |
| 234 nM | 92 nM | 40 nM | CCOc1ccc(C(=O)NCc2cc(CC3(C(=O)O)CCCO3)ccc2OCC)c(Cl)c1 (stereo not drawn) [Ex. 72, 2-(3-{[(2-Chloro-4-ethoxybenzoyl)amino]methyl}-4-ethoxybenzyl)tetrahydro-2-furancarboxylic acid] |
| 38 nM | 13 nM | 5 nM | CCCOc1ccc(C(=O)NCc2cc(CC3(C(=O)O)CCCO3)ccc2OCC)c(Cl)c1 (stereo not drawn) [Ex. 73, 2-(3-{[(2-Chloro-4-propoxybenzoyl)amino]methyl}-4-ethoxybenzyl)tetrahydro-2-furancarboxylic acid] |
